Like-named read-outs stand apart in the source and are kept apart here.

Results on nine compounds are retold here after patent US20250388575A1, “HETEROBIFUNCTIONAL COMPOUNDS AND METHODS OF TREATING DISEASE” (Halda Therapeutics OpCo, Inc., priority 2022, published 2025).

In test [1] the test system is VCaP cells. Nature of the test: Cellular growth inhibition assay for VCaP cells, CellTiter-Glo. Format: cell-based, human. To be noted: VCaP cells, 72 hours, CellTiter-Glo, read-out: GI50. The procedure, abridged: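 GI50 values come from four-parameter curve fits of luminescence data normalized to a zero baseline. Compound, in medium with 0.5% DMSO, was added one day after plating and left for 72 h before CellTiter-Glo 2.0 addition.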
(In general: ATP-based viability assays read luminescence as a measure of living cells.)

Test [2] deals with T47D cells. Kind of test: Cellular growth inhibition assay for T47D cells, CellTiter-Glo. In kind it is cell-based, human. To be noted: 72 hours treatment, CellTiter-Glo 2.0. The procedure, abridged:
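Growth inhibition as GI50, fitted with four parameters to CellTiter-Glo luminescence after 72 h of compound exposure (0.5% DMSO). Cells were T47D, grown in insulin-supplemented (0.2 units/mL) DMEM with 10% FBS and treated one day post-seeding.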

For test [3], the target named is BRD4-BD2 (Homo sapiens (Human), UniProt O60885). Nature of the test: bromoKdELECT assay for binding affinity to BRD4-BD2. The note with it: 11-point 3-fold dilution.

What is called GI50 is the concentration that inhibits growth by half. As for `CCS(=O)(=O)Nc1ccc(Oc2cccc(OCCOC3CCN(c4ccc(C(=O)N[C@H]5CC[C@H](Oc6ccc(C#N)c(Cl)c6)CC5)nn4)CC3)c2)c(-c2cn(C)c(=O)c3[nH]ccc23)c1` [I-1, N-[4-(3-chloro-4-cyano-phenoxy)cyclohexyl]-6-[4-[2-[3-[4-(ethylsulfonylamino)-2-(6-methyl-7-oxo-1H-pyrrolo[2,3-c]pyridin-4-yl)phenoxy]phenoxy]ethoxy]-1-piperidyl]pyridazine-3-carboxamide], the GI50 in test [1] (Homo sapiens) and in test [2] (Homo sapiens) was < 500 nM each time.

What is called Kd is a measure of binding affinity in units of concentration. For the compound `CCS(=O)(=O)c1ccc(Oc2cccc(CCCOC3CC4(C3)CN(c3ccc(C(=O)N[C@H]5CC[C@H](Oc6ccc(C#N)c(Cl)c6)CC5)nn3)C4)c2F)c(-c2cn(C)c(=O)c3[nH]ccc23)c1` [I-46], the dissociation constant Kd in test [3] is 500 to 2500 nM. For the same compound, the GI50 in test [1] (Homo sapiens) and in test [2] (Homo sapiens) was < 500 nM throughout.

On to `CCS(=O)(=O)c1ccc(Oc2cccc(CCC3CCN(c4ccc(C(=O)N[C@H]5CC[C@H](Oc6ccc(C#N)c(Cl)c6)CC5)nn4)CC3)c2F)c(-c2cn(C)c(=O)c3[nH]ccc23)c1` [I-51], for which the dissociation constant Kd in test [3] is 50 to 500 nM. The GI50 in test [1] (Homo sapiens) and in test [2] (Homo sapiens) was < 500 nM each time.

In turn, `CCS(=O)(=O)c1ccc(Oc2cccc(CCCC3CCN(c4ccc(C(=O)N[C@H]5CC[C@H](Oc6ccc(C#N)c(Cl)c6)CC5)nn4)CC3)c2F)c(-c2cn(C)c(=O)c3[nH]ccc23)c1` [I-52] yielded a Kd in test [3] of 50 to 500 nM. The GI50 in test [1] and in test [2] was < 500 nM in each case.

Regarding `CCS(=O)(=O)c1ccc(Oc2cc(F)c(CCC3CCN(c4ccc(C(=O)N[C@H]5CC[C@H](Oc6ccc(C#N)c(Cl)c6)CC5)nn4)CC3)cc2F)c(-c2cn(C)c(=O)c3[nH]ccc23)c1` [I-59], in test [3], the Kd lay in the range of 500 to 2500 nM. The GI50 in test [1] and in test [2] was < 500 nM in each case.

`Cn1cc(-c2cc(C(C)(C)O)ccc2Oc2ccc(OC3CN(c4ccc(C(=O)N[C@H]5CC[C@H](Oc6ccc(C#N)c(Cl)c6)CC5)nn4)C3)cc2)c2cc[nH]c2c1=O` [I-95, N-[4-(3-chloro-4-cyano-phenoxy)cyclohexyl]-6-[3-[4-[4-(1-hydroxy-1-methyl-ethyl)-2-(6-methyl-7-oxo-1H-pyrrolo[2,3-c]pyridin-4-yl)phenoxy]phenoxy]azetidin-1-yl]pyridazine-3-carboxamide] had a Kd in test [3] of 500 to 2500 nM. The GI50 in test [1] (Homo sapiens) was < 500 nM; in test [2] (Homo sapiens), 500 to 1500 nM.

With `Cn1cc(-c2cc(C(C)(C)O)ccc2Oc2ccc(CCC3CCN(c4ccc(C(=O)N[C@H]5CC[C@H](Oc6ccc(C#N)c(Cl)c6)CC5)nn4)CC3)cc2)c2cc[nH]c2c1=O` [I-102], in test [3], the Kd is > 2500 nM. For the same compound, the concentration for 50% growth inhibition (GI50) in test [1] is < 500 nM.

In test [3], `Cn1cc(-c2cc(C(C)(C)O)ccc2Oc2c(F)cc(CCOC3CCN(c4ccc(C(=O)N[C@H]5CC[C@H](Oc6ccc(C#N)c(Cl)c6)CC5)nn4)CC3)cc2F)c2cc[nH]c2c1=O` [I-109] registered a dissociation constant (Kd) of 500 to 2500 nM. Besides, the GI50 in test [1] (Homo sapiens) and in test [2] (Homo sapiens) was < 500 nM each time.

As to `Cn1cc(-c2cc(C(C)(C)O)ccc2O[C@H]2C[C@H](N(C)CC3CCN(c4ccc(C(=O)N[C@H]5CC[C@H](Oc6ccc(C#N)c(Cl)c6)CC5)nn4)CC3)C2)c2cc[nH]c2c1=O` [I-158, N-((1r,4r)-4-(3-chloro-4-cyanophenoxy)cyclohexyl)-6-(4-((((1r,3r)-3-(4-(2-hydroxypropan-2-yl)-2-(6-methyl-7-oxo-6,7-dihydro-1H-pyrrolo[2,3-c]pyridin-4-yl)phenoxy)cyclobutyl)(methyl)amino)methyl)piperidin-1-yl)pyridazine-3-carboxamide], in test [3], the Kd lay within 50 to 500 nM. Besides, the GI50 in test [1] (Homo sapiens) and in test [2] (Homo sapiens) was < 500 nM each time.
